Laboratory results as given in patent US9521845B2, “Beta-lactones as antibacterial agents” (LUDWIG-MAXIMILIANS-UNIVERSITÄT-MÜNCHEN, priority 2008, dated 2016).
“Also recorded” adds a separate entry of the source.

Experiments:
[1] = test system: β-Ketoacyl acyl carrier protein synthase II (KAS II); assay: ABPP labeling of bacterial proteomes, KAS II; format: binding, L. welshimeri, B. subtilis; conditions: 50 μM probe, FIGS. 9A and 9B
Text: The library of beta-lactones to be tested comprised compounds with aliphatic or aromatic substitutions varying in length and branching. To evaluate the target selectivity, the beta-lactones were screened against several gram-positive and gram-negative bacterial proteomes including Pseudomonas putida, Listeria welshimeri, Bacillus licheniformis, Bacillus subtilis and Escherichia coli, which are phylogenetically related to pathogenic strains. In addition, mouse liver cytosol was included as an eukaryotic reference proteome. Initial labeling experiments were carried out by adding individual probes at 50 μM concentration to the proteome which is sufficient to achieve full saturation of most targets. […] As an example, labeling of L. welshimeri cytosolic and membrane proteomes as well as B. subtilis cytosolic proteome with a subset of the most complementary probes is shown in FIGS. 9A and 9B. […] Most of the targeted proteins were of low abundance as shown by the direct comparison of the relative intensities observed with Coomassie staining vs. fluorescence scanning (FIG. 11).
Proteome samples were adjusted to a final concentration of 1 mg protein/mL by dilution in PBS prior to probe labeling. […]

[2] = test system: lipase/acylhydrolase (LipAc); assay: ABPP probe dose down in proteome, lipase/acylhydrolase labeling; format: binding; conditions: L. welshimeri proteome
Protocol: (§1) To estimate the strength of probe interactions with proteins in the proteome, we compared the reactivity profiles of selected beta-lactones across a broad concentration range from 10 μM to 5 nM.
(§2) Proteome samples were adjusted to a final concentration of 1 mg protein/mL by dilution in PBS prior to probe labeling. Experiments for visualization by 1D SDS-PAGE were carried out in 43 μL total volume and those for affinity enrichment in 1892 μL total volume, such that once CC reagents were added, the total reaction volume was 50 μL and 2 mL, respectively. Reactions were initiated by addition of the probe and allowed to incubate for 60 min at room temperature. For heat controls the proteome was denatured with 1 μL of 43% SDS at 95° C. for 6 min and cooled to room temperature before the probe was applied. Following incubation, reporter tagged-azide reagents (13 μM rhodamine-azide for analytical or 20 μM rhodamine-biotin-azide for preparative scale) were added followed by 1 mM TCEP and 100 μM ligand. Samples were gently vortexed and the cycloaddition initiated by the addition of 1 mM CuSO4. The reactions were incubated at room temperature for 1 h (Speers, J. Amer. Chem. Soc. 125 (2003), 4686).

[3] = molecular target: T1, Aldehyde dehydrogenase B (ADB) (Escherichia coli, UniProt P37685); assay: ABPP labeling of E. coli cytosol; format: binding; conditions: 100 nM probe concentration, no other off targets
T1 construct: endogenous in cells; host or cells: Escherichia coli K12 lysate, cytosol fraction
Protocol: as §1, §2

lipase (Lip) = assay: ABPP probe dose down in proteome, lipase labeling; format: binding; conditions: L. welshimeri proteome, concentration range 10 μM to 5 nM
Protocol: as §1, §2

[4] = molecular target: T2, S-formylglutathione hydrolase (SFGH) (Escherichia coli, UniProt P51025); assay: Substrate inhibition assay (p-nitrophenylacetate), IC50 determination; format: biochemical; conditions: beta-lactone G2; substrate 2.4 mM, enzyme 30 nM; estimated
T2 construct: made in house; host or cells: E. coli BL21
Protocol: SFGH mediated […] of the p-nitrophenylacetate leads to the release of p-nitrophenol which can be monitored at 400 nm. Various concentrations of beta-lactone G2 were added to a solution containing the substrate (2.4 mM) and enzyme (30 nM). Reactions were started by addition of the enzyme and subsequently monitored for 6 min. The mean average slopes of absorption (out of three independent experiments) versus beta-lactone concentration were plotted and the concentration of 50% inhibition (IC50) was estimated.

[5] = test system: Listeria monocytogenes EGDe in the mouse macrophage-like cell line J774; assay: Infection of J774 cells and intracellular growth assay; format: cell-based; conditions: 1 mM, 3 h and 5 h post infection, vs DMSO
Protocol: In a Nunclon™ 96-well plate with flat-bottom 1·10^5 J774 cells per well were seeded in 100 μL 90% DMEM medium with 10% FBS without antibiotics. After 24 h incubation the resulting monolayer was washed once with 100 μL PBS and 100 μL of L. monocytogenes EGDe suspension in 90% DMEM medium with 10% FBS without antibiotics was added either with 1 mM beta-lactone U1 or DMSO. L. monocytogenes was grown in an over night culture with beta-lactone/DMSO and resuspended to approximately 10^6 cells/mL resulting in a multiplicity of infection (MOI) of 0.5. Macrophages were infected for 15 min at 37° C. after 15 min bacterial adherence on ice, as described in Molecular Microbiol. 2000, 35(6): 1286-1294 (incorporated herein by reference). Thereafter, the infected monolayer were washed two times with 100 μL PBS each and fresh 90% DMEM medium with 10% FBS containing 10 μg/mL gentamicin and 1 mM beta-lactone U1 or DMSO was added. After 0, 3 and 5 h post infection, the monolayers were washed again with two times 100 μL PBS and eukaryotic cells lysed by the addition of two times 250 μL of 0.05% solution of Triton X-100 in sterile deionised water. Intracellular bacteria were quantified by colony counting of serial dilutions plated on Listeria-agar (Ottaviani & Agosti Agar, Heipha Diagnostika, Eppelheim, Germany).

HeLa cells = assay: Cytotoxicity, WST-1 cell proliferation test; format: cell-based; conditions: up to a concentration of 1 mM (300 mg/L), 24 h
Protocol: Cytotoxicity was determined in HeLa cells using the WST-1 cell proliferation test. Trypsinated cells were seeded at 100 μL aliquots with antibiotic free medium in Nunclon™ flat-bottom 96-well plates with 1·10^4 cells per well. After incubation of HeLa cells for 24 h, the medium was replaced by antibiotic free test medium containing 1 mM, 100 μM and 10 μM beta-lactone U1, DMSO as non-toxic control and 1% Triton X-100 as 100% lethal control. The DMSO content in all tests was kept at 1%. HeLa cells with test medium were incubated for 24 h, then 10 μL WST-1 reagent were added and after 30 min incubation absorption at 450 nm was read with 630 nm reference wavelength using a TECAN GENios Pro microplate reader.

[6] = test system: LLO haemolytic activity of L. monocytogenes EGDe; assay: LLO haemolytic activity testing of culture supernatants; format: cell-based, Listeria monocytogenes EGDe; conditions: Listeria monocytogenes, Erythrocyte; cultures grown 16 h with lactone, sheep red blood cells; read-out: EC50 of reduction of LLO haemolytic activity
Protocol: Overnight cultures of L. monocytogenes EGDe were harvested by centrifugation and resuspended in an equal volume of fresh BHB medium. In 1.5 mL Eppendorf tubes, 400 μL of BHB medium were inoculated with 4 μL of the resuspended Listeria culture and 4 μL of a corresponding beta-lactone stock in DMSO. The final concentrations were 800 μM, 400 μM, 200 μM, 100 μM and DMSO as control. The amount of DMSO in all tests was 1% of the medium. After mixing, the test tubes were incubated under continuous shaking at 200 rpm at 37° C. for 16 h. Then, cells were centrifuged and the supernatants filtered sterile by passing them through a 0.2 μm pore size filter. Haemolytic activity of LLO in the culture supernatants was quantitatively investigated according to a method described in J. Food Safety 1998, 18: 197-203 (incorporated herein by reference) with some modifications. In Nunclon™ 96-well plates with round shaped wells 100 μL of serial dilutions of the supernatants in PBS were added per well and incubated with 100 μL of 3% SRBC (sheep red blood cells) resuspended in PBS for 15 min at 37° C. under gentle shaking. The 96-well plates were centrifuged at 600 rpm for 5 min and the minimum dilution at which intact blood cells began to form a pellet was recorded. Controls with no lactone were set 100%. Buffer only controls and pure BHB medium yielded no haemolysis.

T2 sequence (P51025 whole entry): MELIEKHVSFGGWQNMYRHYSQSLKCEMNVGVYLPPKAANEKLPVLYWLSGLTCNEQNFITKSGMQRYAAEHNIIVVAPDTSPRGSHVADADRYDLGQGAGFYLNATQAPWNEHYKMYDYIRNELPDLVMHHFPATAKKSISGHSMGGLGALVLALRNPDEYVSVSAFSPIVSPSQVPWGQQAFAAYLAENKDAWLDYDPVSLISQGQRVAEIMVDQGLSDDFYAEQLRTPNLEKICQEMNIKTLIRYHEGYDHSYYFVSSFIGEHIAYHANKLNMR
T1 sequence (P37685 whole entry): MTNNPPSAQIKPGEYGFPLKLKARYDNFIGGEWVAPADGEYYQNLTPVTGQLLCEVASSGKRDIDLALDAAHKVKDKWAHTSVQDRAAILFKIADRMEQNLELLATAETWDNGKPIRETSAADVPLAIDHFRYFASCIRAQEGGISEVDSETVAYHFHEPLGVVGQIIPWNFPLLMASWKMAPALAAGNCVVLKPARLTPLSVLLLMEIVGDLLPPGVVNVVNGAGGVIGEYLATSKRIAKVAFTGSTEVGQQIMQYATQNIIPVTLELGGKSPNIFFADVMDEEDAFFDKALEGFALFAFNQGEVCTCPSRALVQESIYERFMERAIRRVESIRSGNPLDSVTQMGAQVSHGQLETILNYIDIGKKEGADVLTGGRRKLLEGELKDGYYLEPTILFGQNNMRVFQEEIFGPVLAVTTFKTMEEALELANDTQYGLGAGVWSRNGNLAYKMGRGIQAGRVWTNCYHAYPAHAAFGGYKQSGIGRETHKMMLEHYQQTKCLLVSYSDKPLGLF

Compound | KAS II labeling [1] | interaction with lipase/acylhydrolase (LipAc) [2] | ADB labeling preference [3] | probe concentration down to which lipase is labeled (lipase (Lip)) [nM] | IC50 [4] [µM] | lower growth in the eukaryotic cells [5] | cytotoxicity to HeLa cells (HeLa cells) | EC50 [6] [µM]
C#CCCCC1OC(=O)C1CCCC (stereo not drawn) [G2, trans-3-butyl-4-(4-pentyn-1-yl)oxetan-2-one] | labeled | does not exhibit strong interaction | strong preference | 20 | 5 | – | – | –
C=CCCCCCCCC1C(=O)OC1CCc1ccccc1 (centres unmarked) [U1] | – | – | – | – | – | approximately 76% | non-cytotoxic; also recorded: Neither microscopic alterations of cell morphology nor significant inhibition of cell proliferation | < 100
